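In this assay, cells in 96-well plates receive the compound at five concentrations for 48 hours. Endpoints are linearly interpolated between the surrounding concentrations. TGI: concentration producing complete growth inhibition.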
How the values were obtained:
Assay in all cases: NCI anticancer screen, dose series, 48 h
ACHN renal = test system: ACHN renal
786-0 renal = test system: 786-0 renal
OVCAR-3 ovarian = test system: OVCAR-3 ovarian
UACC-257 melanoma = test system: UACC-257 melanoma
HOP-62 NSCLC = test system: HOP-62 NSCLC
MDA-MB-231 breast = test system: MDA-MB-231 breast
KM12 colon = test system: KM12 colon
NCI/ADR-RES ovarian = test system: NCI/ADR-RES ovarian
HT29 colon = test system: HT29 colon
HCC-2998 colon = test system: HCC-2998 colon
TK-10 renal = test system: TK-10 renal
SF-539 CNS = test system: SF-539 CNS
M14 melanoma = test system: M14 melanoma
OVCAR-5 ovarian = test system: OVCAR-5 ovarian
HS 578T breast = test system: HS 578T breast
A549 NSCLC = test system: A549 NSCLC
SF-295 CNS = test system: SF-295 CNS
SN12C renal = test system: SN12C renal
MCF7 breast = test system: MCF7 breast
OVCAR-4 ovarian = test system: OVCAR-4 ovarian
CAKI-1 renal = test system: CAKI-1 renal
RXF 393 renal = test system: RXF 393 renal
CCRF-CEM leukemia = test system: CCRF-CEM leukemia
SK-MEL-2 melanoma = test system: SK-MEL-2 melanoma
RPMI-8226 leukemia = test system: RPMI-8226 leukemia
HOP-92 NSCLC = test system: HOP-92 NSCLC
A498 renal = test system: A498 renal
MALME-3M melanoma = test system: MALME-3M melanoma
U251 CNS = test system: U251 CNS
MDA-MB-435 = test system: MDA-MB-435
SK-OV-3 ovarian = test system: SK-OV-3 ovarian
SNB-19 CNS = test system: SNB-19 CNS
MOLT-4 leukemia = test system: MOLT-4 leukemia
OVCAR-8 ovarian = test system: OVCAR-8 ovarian
UACC-62 melanoma = test system: UACC-62 melanoma
NCI-H522 lung = test system: NCI-H522 lung
BT-549 breast = test system: BT-549 breast
NCI-H23 lung = test system: NCI-H23 lung
SK-MEL-5 melanoma = test system: SK-MEL-5 melanoma
LOX IMVI melanoma = test system: LOX IMVI melanoma
IGROV1 ovarian = test system: IGROV1 ovarian
DU-145 prostate = test system: DU-145 prostate
SW-620 colon = test system: SW-620 colon
EKVX NSCLC = test system: EKVX NSCLC
HL-60(TB) leukemia = test system: HL-60(TB) leukemia
NCI-H460 lung = test system: NCI-H460 lung
SF-268 CNS = test system: SF-268 CNS
HCT-15 colon = test system: HCT-15 colon
PC-3 prostate = test system: PC-3 prostate
T-47D breast = test system: T-47D breast
SK-MEL-28 melanoma = test system: SK-MEL-28 melanoma
HCT-116 colon = test system: HCT-116 colon
COLO 205 colon = test system: COLO 205 colon
MDA-N = test system: MDA-N
SNB-75 CNS = test system: SNB-75 CNS
NCI-H226 lung = test system: NCI-H226 lung
UO-31 renal = test system: UO-31 renal
K-562 leukemia = test system: K-562 leukemia

## CC1(C)Cc2c(c3ccccc3c3nc4c(nc23)c2c(c3ccccc34)OC(C)(C)C2)O1
ACHN renal
  TGI: > 100 µM
786-0 renal
  TGI: > 100 µM
OVCAR-3 ovarian
  TGI: > 100 µM
UACC-257 melanoma
  TGI: > 100 µM
HOP-62 NSCLC
  TGI: > 100 µM
MDA-MB-231 breast
  TGI: > 100 µM
KM12 colon
  TGI: > 100 µM
NCI/ADR-RES ovarian
  TGI: > 100 µM
HT29 colon
  TGI: > 100 µM
HCC-2998 colon
  TGI: > 100 µM
TK-10 renal
  TGI: > 100 µM
SF-539 CNS
  TGI: > 100 µM
M14 melanoma
  TGI: > 100 µM
OVCAR-5 ovarian
  TGI: > 100 µM
HS 578T breast
  TGI: > 100 µM
A549 NSCLC
  TGI: > 100 µM
SF-295 CNS
  TGI: > 100 µM
SN12C renal
  TGI: > 100 µM
MCF7 breast
  TGI: > 100 µM
OVCAR-4 ovarian
  TGI: > 100 µM
CAKI-1 renal
  TGI: > 100 µM
RXF 393 renal
  TGI: > 100 µM
CCRF-CEM leukemia
  TGI: > 100 µM
SK-MEL-2 melanoma
  TGI: > 100 µM
RPMI-8226 leukemia
  TGI: > 100 µM
HOP-92 NSCLC
  TGI: > 100 µM
A498 renal
  TGI: > 100 µM
MALME-3M melanoma
  TGI: > 100 µM
U251 CNS
  TGI: > 100 µM
MDA-MB-435
  TGI: > 100 µM
SK-OV-3 ovarian
  TGI: > 100 µM
SNB-19 CNS
  TGI: > 100 µM
MOLT-4 leukemia
  TGI: > 100 µM
OVCAR-8 ovarian
  TGI: > 100 µM
UACC-62 melanoma
  TGI: > 100 µM
NCI-H522 lung
  TGI: > 100 µM
BT-549 breast
  TGI: > 100 µM
NCI-H23 lung
  TGI: > 100 µM
SK-MEL-5 melanoma
  TGI: > 100 µM
LOX IMVI melanoma
  TGI: > 100 µM
IGROV1 ovarian
  TGI: > 100 µM
DU-145 prostate
  TGI: > 100 µM
SW-620 colon
  TGI: > 100 µM
EKVX NSCLC
  TGI: > 100 µM
HL-60(TB) leukemia
  TGI: > 100 µM
NCI-H460 lung
  TGI: > 100 µM
SF-268 CNS
  TGI: > 100 µM
HCT-15 colon
  TGI: > 100 µM
PC-3 prostate
  TGI: > 100 µM
T-47D breast
  TGI: > 100 µM
SK-MEL-28 melanoma
  TGI: > 100 µM
HCT-116 colon
  TGI: > 100 µM
COLO 205 colon
  TGI: > 100 µM
MDA-N
  TGI: > 100 µM

## Oc1ccc(C=NCC2CCCN3CCCCC23)cc1 (stereo unspecified)
ACHN renal
  TGI: 34.9 µM
786-0 renal
  TGI: 36.7 µM
OVCAR-3 ovarian
  TGI: > 69.3 µM
UACC-257 melanoma
  TGI: 62.3 µM
HOP-62 NSCLC
  TGI: > 75.1 µM
MDA-MB-231 breast
  TGI: 74.8 µM
KM12 colon
  TGI: 35.3 µM
NCI/ADR-RES ovarian
  TGI: > 100 µM
HT29 colon
  TGI: 30.7 µM
HCC-2998 colon
  TGI: 40.4 µM
TK-10 renal
  TGI: 55.5 µM
SF-539 CNS
  TGI: > 100 µM
M14 melanoma
  TGI: > 57.6 µM
OVCAR-5 ovarian
  TGI: > 59.5 µM
HS 578T breast
  TGI: 85.5 µM
A549 NSCLC
  TGI: > 62.8 µM
SF-295 CNS
  TGI: > 76.9 µM
SN12C renal
  TGI: 41.9 µM
MCF7 breast
  TGI: > 100 µM
OVCAR-4 ovarian
  TGI: 42.3 µM
CAKI-1 renal
  TGI: 39.5 µM
RXF 393 renal
  TGI: 43.9 µM
SNB-75 CNS
  TGI: > 96.5 µM
NCI-H226 lung
  TGI: 58.4 µM
SK-MEL-2 melanoma
  TGI: 49.4 µM
RPMI-8226 leukemia
  TGI: 86 µM
HOP-92 NSCLC
  TGI: 67.3 µM
A498 renal
  TGI: 83.9 µM
MALME-3M melanoma
  TGI: 74.1 µM
U251 CNS
  TGI: 34.8 µM
MDA-MB-435
  TGI: 27 µM
SK-OV-3 ovarian
  TGI: 97.4 µM
SNB-19 CNS
  TGI: 63.3 µM
MOLT-4 leukemia
  TGI: > 100 µM
OVCAR-8 ovarian
  TGI: > 100 µM
UACC-62 melanoma
  TGI: > 69.5 µM
UO-31 renal
  TGI: > 56.7 µM
NCI-H522 lung
  TGI: 47.3 µM
BT-549 breast
  TGI: 61.5 µM
NCI-H23 lung
  TGI: > 62 µM
SK-MEL-5 melanoma
  TGI: 51.4 µM
LOX IMVI melanoma
  TGI: > 100 µM
IGROV1 ovarian
  TGI: > 67.8 µM
DU-145 prostate
  TGI: 31.3 µM
EKVX NSCLC
  TGI: > 75.4 µM
NCI-H460 lung
  TGI: 73.4 µM
SF-268 CNS
  TGI: > 68.5 µM
HCT-15 colon
  TGI: 63 µM
PC-3 prostate
  TGI: > 100 µM
T-47D breast
  TGI: 71.3 µM
K-562 leukemia
  TGI: > 100 µM
SK-MEL-28 melanoma
  TGI: 38.6 µM
HCT-116 colon
  TGI: 49.5 µM
COLO 205 colon
  TGI: > 66.7 µM
MDA-N
  TGI: 39.4 µM

## CCOC(=O)C1=C(C)NC(C)=C(C(=O)OCC)C1c1ccc(Cl)cc1
ACHN renal
  TGI: 30.8 µM
786-0 renal
  TGI: 26.5 µM
OVCAR-3 ovarian
  TGI: 30.5 µM
UACC-257 melanoma
  TGI: 27.4 µM
HOP-62 NSCLC
  TGI: 30.8 µM
MDA-MB-231 breast
  TGI: 33.6 µM
KM12 colon
  TGI: 40.4 µM
NCI/ADR-RES ovarian
  TGI: 48.1 µM
HT29 colon
  TGI: 24.8 µM
HCC-2998 colon
  TGI: 30.4 µM
TK-10 renal
  TGI: 29.2 µM
SF-539 CNS
  TGI: 37.3 µM
M14 melanoma
  TGI: 31 µM
OVCAR-5 ovarian
  TGI: 27 µM
HS 578T breast
  TGI: 42.2 µM
A549 NSCLC
  TGI: 34.3 µM
SF-295 CNS
  TGI: 26.3 µM
SN12C renal
  TGI: 34.5 µM
MCF7 breast
  TGI: 38.7 µM
OVCAR-4 ovarian
  TGI: 26.9 µM
CAKI-1 renal
  TGI: 30.7 µM
RXF 393 renal
  TGI: 28.3 µM
SNB-75 CNS
  TGI: 33.5 µM
CCRF-CEM leukemia
  TGI: 28.3 µM
SK-MEL-2 melanoma
  TGI: 34.5 µM
RPMI-8226 leukemia
  TGI: 52.8 µM
HOP-92 NSCLC
  TGI: 24 µM
A498 renal
  TGI: 31.2 µM
MALME-3M melanoma
  TGI: 34.6 µM
U251 CNS
  TGI: 34.6 µM
MDA-MB-435
  TGI: 28.9 µM
SK-OV-3 ovarian
  TGI: 31.7 µM
SNB-19 CNS
  TGI: 31.3 µM
MOLT-4 leukemia
  TGI: 24.8 µM
OVCAR-8 ovarian
  TGI: 41.4 µM
UACC-62 melanoma
  TGI: 26.7 µM
UO-31 renal
  TGI: 36.4 µM
NCI-H522 lung
  TGI: 32.2 µM
BT-549 breast
  TGI: 32.7 µM
NCI-H23 lung
  TGI: 32.1 µM
SK-MEL-5 melanoma
  TGI: 28.1 µM
LOX IMVI melanoma
  TGI: 34.4 µM
IGROV1 ovarian
  TGI: 30.9 µM
DU-145 prostate
  TGI: 31.9 µM
SW-620 colon
  TGI: 36.2 µM
EKVX NSCLC
  TGI: 31.3 µM
HL-60(TB) leukemia
  TGI: 8.15 µM
NCI-H460 lung
  TGI: 19.9 µM
SF-268 CNS
  TGI: 34.6 µM
HCT-15 colon
  TGI: 41.6 µM
PC-3 prostate
  TGI: 33.9 µM
T-47D breast
  TGI: 35.2 µM
K-562 leukemia
  TGI: 44.6 µM
SK-MEL-28 melanoma
  TGI: 37 µM
HCT-116 colon
  TGI: 22 µM
COLO 205 colon
  TGI: 32.4 µM
MDA-N
  TGI: 26.9 µM
